Legend:
SspI = assay: Compatible solute assay: protection of SspI activity during heat treatment; assay type: biochemical; conditions: for protection of SspI activity / protection of SspI function: 50° C. for 15 min; for protection of SspI activity, time course: at least 25 min at 50° C., without sugars almost 90% activity lost; for protection of SspI function: 14 mM sugar (physiological concentration)
Method: SspI (New England Biolabs) is a bacterial restriction enzyme that cuts double stranded DNA. In this assay it cuts pGEX-4T-2 circular plasmid twice and generates 3.77 kb and 1.19 kb bands in the reaction buffer (50 mM NaCl, 100 mM Tris-HCL, […] MgCl2, 0.025% Triton X-100 pH 7.5 at 25° C.). Five units of SspI in reaction buffer in the absence of maltose were exposed to 50° C. for 15 min where 50% of the enzyme activity was lost and also exposed to heat temperature in the presence of 14, 100, 200 and 400 mM maltose. Then substrate, 0.5 μg of pGEX-4T-2 circular plasmid (Amersham Biosciences, Piscataway, N.J.), was added to the reaction mixture and incubated at 37 ° C. for 1 hr. […] To visualize the products, 1% agarose gel was run and 22 μl of total 50 μl reaction was loaded on to gel. The gel was run at 100 V for 30 min and stained with EtBr to visualize the product. The top band was quantified to assess the protection by maltose. Also, the same assay was done using sucrose, trehalose and glucose to compare the ability of maltose as a compatible solute. A time course experiment was conducted where SspI was treated in the absence and in the presence of 400 mM maltose, glucose, sucrose and trehalose at 50° C. for 0, 5, 10, 15, 20 and 25 min.
Compatible solutes can stabilize proteins and membranes and contribute to cell osmotic potential during stress. The compatible solute potential of maltose was tested for three different enzymes namely; SspI, Glucose-6-phosphate dehydrogenase (G6PDH) and alcohol dehydrogenase (ADH). The restriction enzyme, SspI (FIG. 4A), cuts the substrate plasmid (pGEX-4T-2; 4.97 kb) twice leading to 1 and 4 kb plasmid fragments, when the enzyme is fully functional. […] When the intensity of the 5 kb top band and the 4 kb band was equal, the enzyme was considered to have lost 50% activity. Sspl was exposed to 50° C. for 15 min (FIG. 4A) in the absence of maltose (0 mM as a control) and in the presence of (14, 100, 200, and 400 mM) maltose. The 5 kb top band, which represented the loss of activity, was quantified to determine relative protection. When the enzyme was fully active, the top band was not visible (FIG. 4A, lane C) and the intensity of the top band increased with increased loss of enzyme activity (lane 2; 0 mM sugars). […] This protection increased with the increasing maltose concentration (FIG. 4A). At 200 and 400 mM, the intensity of the top band was much less compared to 0 mM maltose.

[1] = tested on: photosynthetic electron transport chain of thylakoid membranes; assay: In vitro heat shock of thylakoids, whole electron transport chain assay with DCPIP; assay type: biochemical, Pea; conditions: 40° C. for 4 min, 30% activity remained without sugars
Method: (§1) Pea chloroplast was isolated according to Cline (1993). Aerial portions of 50 g pea plant were chopped into small pieces into 200 ml of ice cold GR-buffer (50 mM HEPES/adjust pH 7.5 with KOH, 0.33 M sorbitol, 1 mM MgCl2, 1 mM MnCl2, 2 mM EDTA, 5 mM Na-ascorbate, 1%, BSA) and homogenized using a probe (named PTA 35/2 m). The homogenate was filtered through 1 layer of Mira cloth and centrifuged at 2000×g for 3 min in a swing-out rotor. Pellet was resuspended in GR buffer, overlayed on a Percoll gradient and centrifuged at 2000×g for 15 min in a swing out rotor. Intact plastids were collected, diluted three times with buffer (50 MM HEPES/KOH pH 8, 0.33 M sorbitol), and pelleted 1.500×g for 5 min. The pellet was resuspended in 25 ml of buffer (50 mM HEPES/KOH pH 8, 0.33 M sorbitol) and chlorophyll content was quantified.
(§2) Thylakoids were isolated according to Santarius (1996). The isolated chloroplast pellets were ruptured by resuspending at 1 mg/ml in 10 mM Hepes/KOH, pH 8, 5 mM MgCl2, and incubating 2 min on ice. Then, wash buffer 1:1 (70 mM KCl, 30 mM NaNO3, 20 mM K2SO4, 5 mM MgCl2, and 5 mM Hepes/KOH pH 7.5) was added and centrifuged 3300×g for 8 min to collect thylakoid membranes. The pellet was washed at 1 mg/ml in wash buffer and centrifuged at 3300×g for 8 min. Thylakoids were resuspended in wash buffer corresponding to 1 mg/ml chlorophyll.
Heat shock: Aliquots of 0.2 ml thylakoid in wash buffer (70 mM KCl, 30 mM NaNO3, 20 mM K2SO4, 5 mM MgCl2, and 5 mM Hepes/KOH pH 7.5) corresponding to 0.5 mg/ml chlorophyll were, exposed to heat shock at 40° C. for 4 min in the absence and presence of 2.5, 14, 28, 56, and 112 mM maltose, glucose and trehalose. Full activity of the whole electron transport chain was measured after isolation of thylakoid membranes. Five independent experiments with 3 replications each were done.
(§3) Whole electron transport chain assay, with DCPIP: This assay was done according to Hipkins and Baker (1986). Assay buffer included 0.1 M sorbitol, 50 mM Hepes-KOH pH 7.6, 5 mM NaCl, 5 mM MgCl2, 0.1 mM DCPIP. The reaction was mixed after addition of thylakoid corresponding to 25 μg/ml chlorophyll and illuminated for 10 sec at 200 μmol photons m^−2 sec^−1 light intensity. Activity of electron transport chain was determined using redox dye DCPIP reduction at 595 nm.
Maltose, trehalose and glucose were tested in vitro for compatible solute properties using thylakoid membranes for the functionality of electron transport chain against heat denaturation (FIG. 5) and freezing stress (FIG. 6). Pea thylakoids were exposed to 40° C. for 4 min (FIG. 5), where 30% of electron transport chain activity remained in the absence of compatible solute sugars. Electron transport chain activity was followed by reduction of a redox dye 2,6-dichlorophenolindophenol (DCPIP), which accepts electrons from QB of PSII and FeSA of PSI (Häder and Tevini, 1987). At physiological concentrations of 2.5 and 14 mM maltose, photosynthetic electron transport chain activity was protected 3 and 5%. respectively, during heat shock.

[2] = molecular target: T1, Glucose-6-phosphate dehydrogenase (G6PDH) (Leuconostoc mesenteroides, UniProt P11411); assay: Compatible solute assay: protection of G6PDH activity during heat shock; assay type: biochemical; conditions: 14, 100, 200, 400 mM sugar, 48° C. for 15 min
T1 construct: purchased Worthington Biochemical Company
Method: Glucose-6-phosphate dehydrogenase (G6PDH): Lyophilized G6PDH from Leuconostoc mesenteroides was purchased from Worthington Biochemical Company. G6PDH in 50 mM Tris-HCl pH 7.8 was exposed to 48° C. for 15 min, which reduced activity by 50%. G6PDH in 50 mM Tris-HCl pH 7.8 was heat shocked in the absence and presence of 14, 100, 200, and 400 mM sugars: maltose, trehalose, glucose and sucrose. […] The reaction (1.5 ml) included 2.97 mM MgCl2, 50 mM Tris-HCl pH 7.8, 0.6 mM β-NADP^+ (freshly prepared), 10 mM Glucose-6-phosphate , and 595 ng heat shocked G6PDH. Production of NADPH was followed for 3 min at 340 nm using Lambda 3A UV/VIS spectrophotometer (PERKIN-ELMER). A time course experiment with two replications was conducted where G6PDH was treated in the absence and in the presence of 400 mM maltose, glucose, sucrose and trehalose at 48° C. for 0, 10, 15, 20 and 25 min.
To test whether this protection is general, compatible solute assays were performed using G6PDH, which uses D-glucose-6-phosphate and NAD(P)^+ as substrates to produce D-glucono-δ-lactone-P and NAD(P)H (FIG. 4B). […] The same performance was seen (FIG. 7B), when the time was extended to 25 min in the presence of 400 mM of the above sugars.

[3] = tested on: photosynthetic electron transport chain of thylakoid membranes; assay: In vitro freezing stress of thylakoids, whole electron transport chain assay with DCPIP; assay type: biochemical, Pea; conditions: −15° C. for 20 hr; for electron transport chain activity protection after freezing: 60% reduction without sugars
Method: as §1, §2
Freezing stress: Aliqutots of 0.2 ml thylakoid in wash buffer (70 mM KCl, 30 mM NaNO3, 20 mM K2SO4, 5 mM MgCl2, and 5 mM Hepes/KOH pH 7.5) corresponding to 0.5 mg/ml chlorophyll were exposed to freezing stress at −15° C. for 20 hrs in absence and presence of 2.5, 14, 28, 56, and 112 mM maltose, glucose and trehalose. Full activity of the whole electron transport chain was measured after isolation of thylakoid membranes. Four independent experiments with three (3) replications each were done.
as §3
Pea thylakoids were frozen (FIG. 6) at −15° C. for 20 hr, which caused a 60% reduction of electron transport chain activity. […] This protection increased gradually to 93% with the increasing concentration of maltose and was very similar to that of trehalose. Glucose at 112 mM gave 47% protection, which was much less than that of maltose or trehalose.

T1 sequence (P11411 whole entry): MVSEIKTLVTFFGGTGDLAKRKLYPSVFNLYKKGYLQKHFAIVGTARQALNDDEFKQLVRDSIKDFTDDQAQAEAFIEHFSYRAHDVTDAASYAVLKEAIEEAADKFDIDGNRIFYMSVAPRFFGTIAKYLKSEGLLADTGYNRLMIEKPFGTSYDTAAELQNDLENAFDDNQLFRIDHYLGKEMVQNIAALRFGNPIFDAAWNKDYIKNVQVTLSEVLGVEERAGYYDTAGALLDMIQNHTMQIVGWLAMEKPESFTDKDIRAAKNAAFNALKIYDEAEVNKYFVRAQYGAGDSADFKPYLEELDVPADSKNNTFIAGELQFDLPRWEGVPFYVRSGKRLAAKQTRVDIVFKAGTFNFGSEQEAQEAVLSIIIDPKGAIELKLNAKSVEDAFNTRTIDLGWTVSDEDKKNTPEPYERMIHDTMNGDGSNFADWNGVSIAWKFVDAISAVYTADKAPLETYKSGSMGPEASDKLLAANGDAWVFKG

Row | SMILES | protection of SspI activity (SspI; 200 mM sugar) | protection of SspI activity (SspI; 400 mM sugar) | protection of SspI activity, time course (SspI; 400 mM sugar) | electron transport chain activity protected during heat shock ([1]; 112 mM sugar) [%] | protection of SspI function (SspI) | protection of SspI function (SspI; listed as Maltose) | electron transport chain activity protected during heat shock ([1]; 2.5 mM sugar) [%] | electron transport chain activity protected during heat shock ([1]; 14 mM sugar) [%] | protection of G6PDH activity [2] | electron transport chain activity protection after freezing ([3]; 2.5 mM sugar) [%] | electron transport chain activity protection after freezing ([3]; 14 mM sugar) [%] | electron transport chain activity protection after freezing, reached with increasing concentration ([3]; increasing concentration (concentration not given; up to 112 mM tested)) [%] | electron transport chain activity protection after freezing ([3]; 112 mM sugar) [%]
1 | OC[C@H]1O[C@H](O[C@H]2O[C@H](CO)[C@@H](O)[C@H](O)[C@H]2O)[C@H](O)[C@@H](O)[C@@H]1O [trehalose] | 100% | 100% | 100% | 54 |  |  |  |  |  |  |  |  | 
2 | OC[C@H]1O[C@@](CO)(O[C@H]2O[C@H](CO)[C@@H](O)[C@H](O)[C@H]2O)[C@@H](O)[C@@H]1O [sucrose] |  | 100% | 100% |  |  |  |  |  |  |  |  |  | 
3 | OC[C@H]1O[C@H](O[C@H]2[C@H](O)[C@@H](O)[C@H](O)O[C@@H]2CO)[C@H](O)[C@@H](O)[C@@H]1O [maltose, 4-O-α-D-Glucopyranosyl-β-D-glucose] | 80-90% | 85-90% | about 90% | 45 | able to partially protect SspI function | performed as well as trehalose | 3 | 5 | performed as well as the other compatible solute sugars | 2 | 24 | 93 | 
4 | O=C[C@H](O)[C@@H](O)[C@H](O)[C@H](O)CO [glucose, reference compound] |  | 100% | 100% | 30 |  |  |  |  |  |  |  |  | 47

— patent US20040091900A1, “Materials and methods for providing plants with increased resistance to environmental stress” (priority 2002, published 2004)
